According to ChEMBL document CHEMBL1143235, “1-Hydroxy-2-pyridinone-based MMP inhibitors: synthesis and biological evaluation for the treatment of ischemic stroke” (Bioorg Med Chem Lett, 2008):
The source made the active and inactive calls. No cut-off for these calls is given here.

Key:
[1] = target: T1, 72 kDa type IV collagenase (Homo sapiens, UniProt P08253); assay: Inhibition of MMP2
Target sequence in this assay (P08253 whole entry): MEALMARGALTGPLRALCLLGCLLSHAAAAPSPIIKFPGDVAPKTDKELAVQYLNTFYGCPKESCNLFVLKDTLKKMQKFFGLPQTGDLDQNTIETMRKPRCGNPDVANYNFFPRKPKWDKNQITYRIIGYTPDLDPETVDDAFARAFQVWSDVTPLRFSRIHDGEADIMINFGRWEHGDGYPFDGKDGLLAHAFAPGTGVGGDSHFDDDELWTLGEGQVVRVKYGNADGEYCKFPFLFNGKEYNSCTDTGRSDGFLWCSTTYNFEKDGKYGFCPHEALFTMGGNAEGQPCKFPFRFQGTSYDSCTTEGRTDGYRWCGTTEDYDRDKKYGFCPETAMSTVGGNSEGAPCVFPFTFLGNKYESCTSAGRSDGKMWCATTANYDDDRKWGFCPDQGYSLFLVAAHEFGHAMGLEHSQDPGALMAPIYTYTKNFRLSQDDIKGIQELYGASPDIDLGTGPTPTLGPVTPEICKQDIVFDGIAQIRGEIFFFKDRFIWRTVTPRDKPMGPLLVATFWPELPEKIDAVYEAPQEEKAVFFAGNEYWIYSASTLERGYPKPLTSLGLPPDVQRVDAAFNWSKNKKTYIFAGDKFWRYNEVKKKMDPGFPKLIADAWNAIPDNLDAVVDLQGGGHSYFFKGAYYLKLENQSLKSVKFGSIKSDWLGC

[2] = target: T2, Matrix metalloproteinase-9 (Homo sapiens, UniProt P14780); assay: Inhibition of MMP9
Interstitial collagenase = target: T3, Interstitial collagenase (Homo sapiens, UniProt P03956); assay: Inhibition of MMP1
T3 sequence (P03956 whole entry): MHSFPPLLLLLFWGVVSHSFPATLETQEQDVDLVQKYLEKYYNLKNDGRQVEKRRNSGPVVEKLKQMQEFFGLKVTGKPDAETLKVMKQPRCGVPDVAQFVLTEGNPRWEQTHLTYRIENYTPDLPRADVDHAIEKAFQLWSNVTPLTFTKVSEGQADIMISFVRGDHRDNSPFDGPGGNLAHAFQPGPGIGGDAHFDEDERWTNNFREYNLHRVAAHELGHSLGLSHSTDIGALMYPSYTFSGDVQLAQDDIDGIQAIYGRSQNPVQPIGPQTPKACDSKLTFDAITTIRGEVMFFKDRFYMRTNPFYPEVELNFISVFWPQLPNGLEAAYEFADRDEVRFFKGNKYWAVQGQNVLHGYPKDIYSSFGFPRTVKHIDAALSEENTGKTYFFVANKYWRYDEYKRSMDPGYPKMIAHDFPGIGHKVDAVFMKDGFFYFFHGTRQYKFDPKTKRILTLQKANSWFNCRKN

[3] = Apparent elimination half life in rat at 2 mg/kg, iv; assay type: ADME, organism-based; set-up: dose 2 mg/kg, route intravenous; settings: in vivo
Stromelysin-1 [4] = target: T4, Stromelysin-1 (Homo sapiens, UniProt P08254); assay: Inhibition of MMP3
Target sequence in this assay (P08254 whole entry): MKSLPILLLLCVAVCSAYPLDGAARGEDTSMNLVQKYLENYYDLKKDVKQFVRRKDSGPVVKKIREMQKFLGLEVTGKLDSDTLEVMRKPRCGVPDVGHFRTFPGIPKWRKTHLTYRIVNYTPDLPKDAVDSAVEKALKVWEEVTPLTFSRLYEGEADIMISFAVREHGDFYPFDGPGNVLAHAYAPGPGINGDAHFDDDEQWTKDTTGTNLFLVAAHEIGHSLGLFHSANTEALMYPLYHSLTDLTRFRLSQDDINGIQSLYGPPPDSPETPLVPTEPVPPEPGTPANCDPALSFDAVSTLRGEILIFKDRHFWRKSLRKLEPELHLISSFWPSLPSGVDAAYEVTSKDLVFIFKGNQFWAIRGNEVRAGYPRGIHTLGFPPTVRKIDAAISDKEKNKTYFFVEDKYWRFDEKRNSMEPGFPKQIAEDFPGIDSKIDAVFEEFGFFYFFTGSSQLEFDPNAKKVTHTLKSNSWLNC

Collagenase 3 = Collagenase 3 (Homo sapiens, UniProt P45452); assay: Inhibition of MMP13
Rattus norvegicus = assay: AUC in rat at 2 mg/kg, iv; assay type: ADME, organism-based, Plasma; set-up: dose 2 mg/kg, route intravenous; settings: in vivo
[5] = Plasma concentration in mouse at 10 mg/kg, po after 1 hr
[6] = Volume of distribution at steady state in rat at 2 mg/kg, iv; assay type: ADME, organism-based; set-up: dose 2 mg/kg, route intravenous; settings: in vivo, read-out: Vdss
Mus musculus = assay: Reduction of focal ischemia-induced brain edema in C57 Black/6 mouse at 6 mg/kg, iv after 2 hrs by wet/dry method; assay type: functional, organism-based; set-up: dose 6 mg/kg
[7] = Drug level in rat at 2 mg/kg, iv; assay type: ADME, organism-based; set-up: dose 2 mg/kg, route intravenous; settings: in vivo
[8] = target: T2, Matrix metalloproteinase-9; assay: Inhibition of MMP9 at 100 uM
[9] = target: T1, 72 kDa type IV collagenase; settings: 100 uM
Target sequence in this assay (P08253 110-660 limits assumed): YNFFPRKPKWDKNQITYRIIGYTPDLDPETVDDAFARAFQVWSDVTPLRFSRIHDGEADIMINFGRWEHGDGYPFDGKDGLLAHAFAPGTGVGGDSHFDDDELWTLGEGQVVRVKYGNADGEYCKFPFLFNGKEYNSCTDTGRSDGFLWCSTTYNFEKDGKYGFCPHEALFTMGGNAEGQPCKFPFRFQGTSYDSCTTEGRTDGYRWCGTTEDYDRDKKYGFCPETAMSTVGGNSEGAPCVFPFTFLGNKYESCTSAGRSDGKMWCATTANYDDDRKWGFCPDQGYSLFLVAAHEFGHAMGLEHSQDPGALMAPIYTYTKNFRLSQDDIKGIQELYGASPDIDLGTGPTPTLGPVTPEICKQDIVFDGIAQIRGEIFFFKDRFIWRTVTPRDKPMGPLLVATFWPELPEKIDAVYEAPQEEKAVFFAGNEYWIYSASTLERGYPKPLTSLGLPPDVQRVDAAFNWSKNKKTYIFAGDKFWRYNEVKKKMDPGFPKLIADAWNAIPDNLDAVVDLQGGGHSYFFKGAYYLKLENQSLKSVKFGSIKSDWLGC
Description: Inhibition of MMP2 at 100 uM

Stromelysin-1 [10] = target: T4, Stromelysin-1; assay: Inhibition of MMP3 at 100 uM
Target sequence in this assay (P08254 100-477 limits assumed): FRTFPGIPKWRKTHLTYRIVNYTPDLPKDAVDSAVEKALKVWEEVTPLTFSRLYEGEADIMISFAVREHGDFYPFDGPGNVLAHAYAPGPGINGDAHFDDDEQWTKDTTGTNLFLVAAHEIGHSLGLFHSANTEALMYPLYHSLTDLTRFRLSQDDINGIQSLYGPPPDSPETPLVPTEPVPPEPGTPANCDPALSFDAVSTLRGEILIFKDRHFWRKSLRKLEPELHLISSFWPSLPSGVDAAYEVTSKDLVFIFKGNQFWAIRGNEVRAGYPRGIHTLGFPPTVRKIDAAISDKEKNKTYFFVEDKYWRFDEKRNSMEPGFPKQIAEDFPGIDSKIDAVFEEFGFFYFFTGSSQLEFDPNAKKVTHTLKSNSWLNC

T2 sequence (P14780 whole entry): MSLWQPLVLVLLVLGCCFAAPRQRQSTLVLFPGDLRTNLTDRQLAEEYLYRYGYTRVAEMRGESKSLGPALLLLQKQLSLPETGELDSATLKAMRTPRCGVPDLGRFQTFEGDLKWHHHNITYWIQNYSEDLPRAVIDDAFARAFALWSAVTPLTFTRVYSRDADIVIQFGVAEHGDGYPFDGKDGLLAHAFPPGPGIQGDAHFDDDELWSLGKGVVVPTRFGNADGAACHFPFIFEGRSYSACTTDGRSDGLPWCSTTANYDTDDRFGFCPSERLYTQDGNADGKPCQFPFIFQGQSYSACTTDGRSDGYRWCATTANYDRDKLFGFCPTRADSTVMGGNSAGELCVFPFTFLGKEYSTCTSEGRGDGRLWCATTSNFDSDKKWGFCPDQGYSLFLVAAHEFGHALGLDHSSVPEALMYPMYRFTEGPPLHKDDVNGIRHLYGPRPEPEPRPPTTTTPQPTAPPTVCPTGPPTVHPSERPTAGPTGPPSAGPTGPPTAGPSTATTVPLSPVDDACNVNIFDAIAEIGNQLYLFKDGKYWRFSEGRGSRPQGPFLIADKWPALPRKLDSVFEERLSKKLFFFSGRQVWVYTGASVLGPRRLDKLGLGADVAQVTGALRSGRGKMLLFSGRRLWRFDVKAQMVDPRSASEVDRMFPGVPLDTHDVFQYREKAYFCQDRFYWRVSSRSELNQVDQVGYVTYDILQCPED

CC(C)N(c1cccn(O)c1=O)S(=O)(=O)c1ccc(Oc2ccccc2)cc1
IC50 [1]: 41 nM
IC50 [2]: 57.5 nM

CCN(c1cccn(O)c1=O)S(=O)(=O)c1ccc(Oc2ccccc2)cc1
IC50 [1]: 6.5 nM
IC50 [2]: 3.6 nM

CN(c1cccn(O)c1=O)S(=O)(=O)c1ccc(Oc2ccc(Cl)cc2)cc1
IC50 (Interstitial collagenase): > 1000 nM
half-life [3]: 47 h
IC50 [1]: 5 nM
IC50 (Stromelysin-1 [4]): 56.5 nM
IC50 (Collagenase 3): 2.5 nM
AUC (Rattus norvegicus): 179 µg·h/mL
IC50 [2]: 2.4 nM
concentration at 1 h [5]: 34 µM
Vd [6]: 1.75 L/kg
Activity (Mus musculus): Active
C0 [7]: 8.4 µM

COc1ccc(Oc2ccc(S(=O)(=O)N(C)c3cccn(O)c3=O)cc2)cc1
IC50 (Interstitial collagenase): > 1000 nM
IC50 (Stromelysin-1 [4]): 79.1 nM
IC50 (Collagenase 3): 6.8 nM

O=c1c(N(CCN2CCOCC2)S(=O)(=O)c2ccc(Oc3ccc(Cl)cc3)cc2)cccn1O
IC50 (Interstitial collagenase): > 1000 nM
IC50 (Stromelysin-1 [4]): 62.9 nM
IC50 (Collagenase 3): 4 nM

CN(c1cccn(O)c1=O)S(=O)(=O)c1ccc(Oc2ccccc2)cc1
IC50 [1]: 8.3 nM
IC50 [2]: 5 nM

CN(c1cccn(O)c1=O)S(=O)(=O)c1ccc(Oc2ccc(OC(F)(F)F)cc2)cc1
IC50 [2]: 1.8 nM

Cc1ccc(Oc2ccc(S(=O)(=O)N(C)c3cccn(O)c3=O)cc2)cc1
IC50 [1]: 6.1 nM
IC50 [2]: 4.4 nM

Cc1cc(=O)c(O)c(C(=O)NCc2ccc(-c3ccccc3)cc2)o1
inhibition [8]: 34%
inhibition [9]: 34%
inhibition (Stromelysin-1 [10]): 34%
